# Laboratory results published in PubChem BioAssay (NCI).
#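 Tested at 5 concentrations; 48 h exposure; 96-well plates; endpoints linearly interpolated, else capped at highest concentration. GI50: concentration for 50% inhibition of growth. TGI is the concentration that stops growth completely.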
# What was measured:
# Experiment in all cases: DTP human tumour cell line panel, 48 h
# COLO 205 colon = test system: COLO 205 colon
# SR leukemia = test system: SR leukemia
# SNB-19 CNS = test system: SNB-19 CNS
# HS 578T breast = test system: HS 578T breast
# SW-620 colon = test system: SW-620 colon
# NCI-H23 lung = test system: NCI-H23 lung
# DU-145 prostate = test system: DU-145 prostate
# HL-60(TB) leukemia = test system: HL-60(TB) leukemia
# SF-295 CNS = test system: SF-295 CNS
# OVCAR-4 ovarian = test system: OVCAR-4 ovarian
# RXF 393 renal = test system: RXF 393 renal
# PC-3 prostate = test system: PC-3 prostate
# ACHN renal = test system: ACHN renal
# SNB-75 CNS = test system: SNB-75 CNS
# NCI-H522 lung = test system: NCI-H522 lung
# IGROV1 ovarian = test system: IGROV1 ovarian
# MDA-MB-468 breast = test system: MDA-MB-468 breast
# OVCAR-8 ovarian = test system: OVCAR-8 ovarian
# K-562 leukemia = test system: K-562 leukemia
# HOP-62 NSCLC = test system: HOP-62 NSCLC
# TK-10 renal = test system: TK-10 renal
# T-47D breast = test system: T-47D breast
# EKVX NSCLC = test system: EKVX NSCLC
# OVCAR-5 ovarian = test system: OVCAR-5 ovarian
# RPMI-8226 leukemia = test system: RPMI-8226 leukemia
# OVCAR-3 ovarian = test system: OVCAR-3 ovarian
# UO-31 renal = test system: UO-31 renal
# MDA-MB-231 breast = test system: MDA-MB-231 breast
# SK-MEL-5 melanoma = test system: SK-MEL-5 melanoma
# CCRF-CEM leukemia = test system: CCRF-CEM leukemia
# CAKI-1 renal = test system: CAKI-1 renal
# SK-MEL-28 melanoma = test system: SK-MEL-28 melanoma
# SK-OV-3 ovarian = test system: SK-OV-3 ovarian
# HCT-116 colon = test system: HCT-116 colon
# HCT-15 colon = test system: HCT-15 colon
# NCI/ADR-RES ovarian = test system: NCI/ADR-RES ovarian
# SF-539 CNS = test system: SF-539 CNS
# SF-268 CNS = test system: SF-268 CNS
# NCI-H460 lung = test system: NCI-H460 lung
# A549 NSCLC = test system: A549 NSCLC
# MOLT-4 leukemia = test system: MOLT-4 leukemia
# BT-549 breast = test system: BT-549 breast
# HCC-2998 colon = test system: HCC-2998 colon
# NCI-H226 lung = test system: NCI-H226 lung
# A498 renal = test system: A498 renal
# MALME-3M melanoma = test system: MALME-3M melanoma
# 786-0 renal = test system: 786-0 renal
# LOX IMVI melanoma = test system: LOX IMVI melanoma
# UACC-62 melanoma = test system: UACC-62 melanoma
# MCF7 breast = test system: MCF7 breast
# HT29 colon = test system: HT29 colon
# HOP-92 NSCLC = test system: HOP-92 NSCLC
# MDA-MB-435 = test system: MDA-MB-435
# UACC-257 melanoma = test system: UACC-257 melanoma
# KM12 colon = test system: KM12 colon
# U251 CNS = test system: U251 CNS
# M14 melanoma = test system: M14 melanoma
# SN12C renal = test system: SN12C renal
# SK-MEL-2 melanoma = test system: SK-MEL-2 melanoma
smiles,measurement,setting,value
CCN1C(=O)N(CC)C2NNC(Sc3c(C(=O)O)c4ccccc4n(C4CCCC4)c3=O)=NC21 (stereo not drawn),GI50,COLO 205 colon,2040 nM
same,TGI,COLO 205 colon,4.16 µM
same,GI50,SR leukemia,3.4 µM
same,TGI,SR leukemia,35.7 µM
same,GI50,SNB-19 CNS,4.59 µM
same,TGI,SNB-19 CNS,57.3 µM
same,GI50,HS 578T breast,2210 nM
same,TGI,HS 578T breast,8.88 µM
same,GI50,SW-620 colon,3.3 µM
same,TGI,SW-620 colon,17.1 µM
same,GI50,NCI-H23 lung,3.44 µM
same,TGI,NCI-H23 lung,15.4 µM
same,GI50,DU-145 prostate,3.91 µM
same,TGI,DU-145 prostate,18.3 µM
same,GI50,HL-60(TB) leukemia,2350 nM
same,TGI,HL-60(TB) leukemia,6.86 µM
same,GI50,SF-295 CNS,2410 nM
same,TGI,SF-295 CNS,7.88 µM
same,GI50,OVCAR-4 ovarian,6.15 µM
same,TGI,OVCAR-4 ovarian,45 µM
same,GI50,RXF 393 renal,2850 nM
same,TGI,RXF 393 renal,11.9 µM
same,GI50,PC-3 prostate,4.06 µM
same,TGI,PC-3 prostate,33.6 µM
same,GI50,ACHN renal,4.36 µM
same,TGI,ACHN renal,16.3 µM
same,GI50,SNB-75 CNS,1510 nM
same,TGI,SNB-75 CNS,11.8 µM
same,GI50,NCI-H522 lung,1540 nM
same,TGI,NCI-H522 lung,3.74 µM
same,GI50,IGROV1 ovarian,4.41 µM
same,TGI,IGROV1 ovarian,29.4 µM
same,GI50,MDA-MB-468 breast,2020 nM
same,TGI,MDA-MB-468 breast,6.05 µM
same,GI50,OVCAR-8 ovarian,3.28 µM
same,TGI,OVCAR-8 ovarian,12.7 µM
same,GI50,K-562 leukemia,3.13 µM
same,TGI,K-562 leukemia,> 100 µM
same,GI50,HOP-62 NSCLC,5.75 µM
same,TGI,HOP-62 NSCLC,37.2 µM
same,GI50,TK-10 renal,10.3 µM
same,TGI,TK-10 renal,31.3 µM
same,GI50,T-47D breast,7.2 µM
same,TGI,T-47D breast,72.7 µM
same,GI50,EKVX NSCLC,4.69 µM
same,TGI,EKVX NSCLC,27.4 µM
same,GI50,OVCAR-5 ovarian,4.09 µM
same,TGI,OVCAR-5 ovarian,22.1 µM
same,GI50,RPMI-8226 leukemia,4.17 µM
same,TGI,RPMI-8226 leukemia,25.9 µM
same,GI50,OVCAR-3 ovarian,3.21 µM
same,TGI,OVCAR-3 ovarian,12.8 µM
same,GI50,UO-31 renal,4.38 µM
same,TGI,UO-31 renal,22.9 µM
same,GI50,MDA-MB-231 breast,3.03 µM
same,TGI,MDA-MB-231 breast,11.5 µM
same,GI50,SK-MEL-5 melanoma,3.49 µM
same,TGI,SK-MEL-5 melanoma,13.6 µM
same,GI50,CCRF-CEM leukemia,3.45 µM
same,TGI,CCRF-CEM leukemia,38.3 µM
same,GI50,CAKI-1 renal,3.97 µM
same,TGI,CAKI-1 renal,16.5 µM
same,GI50,SK-MEL-28 melanoma,6.95 µM
same,TGI,SK-MEL-28 melanoma,25.7 µM
same,GI50,SK-OV-3 ovarian,3.35 µM
same,TGI,SK-OV-3 ovarian,20.8 µM
same,GI50,HCT-116 colon,3.09 µM
same,TGI,HCT-116 colon,11.2 µM
same,GI50,HCT-15 colon,2850 nM
same,TGI,HCT-15 colon,11.2 µM
same,GI50,NCI/ADR-RES ovarian,1920 nM
same,TGI,NCI/ADR-RES ovarian,4.42 µM
same,GI50,SF-539 CNS,2140 nM
same,TGI,SF-539 CNS,5.51 µM
same,GI50,SF-268 CNS,4.47 µM
same,TGI,SF-268 CNS,45.4 µM
same,GI50,NCI-H460 lung,2600 nM
same,TGI,NCI-H460 lung,10.7 µM
same,GI50,A549 NSCLC,4.04 µM
same,TGI,A549 NSCLC,17.8 µM
same,GI50,MOLT-4 leukemia,3.88 µM
same,TGI,MOLT-4 leukemia,50.3 µM
same,GI50,BT-549 breast,9.6 µM
same,TGI,BT-549 breast,24.4 µM
same,GI50,HCC-2998 colon,2840 nM
same,TGI,HCC-2998 colon,9.8 µM
same,GI50,NCI-H226 lung,4.34 µM
same,TGI,NCI-H226 lung,17.7 µM
same,GI50,A498 renal,14.8 µM
same,TGI,A498 renal,42.8 µM
same,GI50,MALME-3M melanoma,7.36 µM
same,TGI,MALME-3M melanoma,25.6 µM
same,GI50,786-0 renal,4.36 µM
same,TGI,786-0 renal,19.4 µM
same,GI50,LOX IMVI melanoma,3.87 µM
same,TGI,LOX IMVI melanoma,16.2 µM
same,GI50,UACC-62 melanoma,3.05 µM
same,TGI,UACC-62 melanoma,16.3 µM
same,GI50,MCF7 breast,2070 nM
same,TGI,MCF7 breast,13.3 µM
same,GI50,HT29 colon,3.13 µM
same,TGI,HT29 colon,10.5 µM
same,GI50,HOP-92 NSCLC,10.3 µM
same,TGI,HOP-92 NSCLC,35 µM
same,GI50,MDA-MB-435,1470 nM
same,TGI,MDA-MB-435,3.85 µM
same,GI50,UACC-257 melanoma,7.65 µM
same,TGI,UACC-257 melanoma,28.2 µM
same,GI50,KM12 colon,3.3 µM
same,TGI,KM12 colon,16.9 µM
same,GI50,U251 CNS,3.66 µM
same,TGI,U251 CNS,15.3 µM
same,GI50,M14 melanoma,3.28 µM
same,TGI,M14 melanoma,13.3 µM
same,GI50,SN12C renal,3.41 µM
same,TGI,SN12C renal,16.1 µM
same,GI50,SK-MEL-2 melanoma,4.15 µM
same,TGI,SK-MEL-2 melanoma,19.4 µM
